The results in this text go back to patent publication US11298355B2 (Aerovate Therapeutics, Inc., priority 2019, dated 2022).

This data set is described as follows: Thermal stability and polymorphism of imatinib salts. In kind it is physicochemical. Particulars: imatinib salt forms.
With `O=S(=O)(O)CCO` [isethionate], the “thermal stability and polymorphic forms” value is “suitable thermal stability and few or single polymorphic forms”.

Turning to malate, the “thermal stability and polymorphic forms” value was “suitable thermal stability and few or single polymorphic forms”.

malonate: the “thermal stability and polymorphic forms” value was “suitable thermal stability and few or single polymorphic forms”.

In the case of tartrate, the “thermal stability and polymorphic forms” value is “suitable thermal stability and few or single polymorphic forms”.
